Values joined by “and” are separate entries in the source; they are usually repeats but may differ in a detail not shown here. Equal entries are not always repeated. Marks after values point to notes of the source that are not given here.
Tests used:
[1] = test system: MCF-7 breast cancer cells; conditions: RU 2619457; cited from earlier work
ovariectomized rats = assay: Biochemical parameters of ovariectomized rats; assay type: in vivo, rat; conditions: ovariectomised rats, EE 0.1 mg/kg bw
[2] = test system: breast tumors in female FVB mice transgenic for HER-2/neu; assay: Antitumor activity on model of multiple breast tumors in HER-2/neu transgenic mice; conditions: for Average total volume of tumors in mice (M) / Average volume of tumors present at the beginning of the experiment (M): i.g. daily
Description: Two adenocarcinoma subtypes can be differentiated, in particular ER+, PR−, and ER−, PR− [2].
The study was carried out in female FVB mice transgenic for HER-2/neu by conventional category; the strain was obtained from the mouse bank Charles River Laboratories (Italy). At the beginning of the study the animals were 21-41 weeks old having weight of 25 to 30 g.
The study medicament was administered i.g. using a metal atraumatic gavage (with the procedure corresponds to the oral route of administration in clinical settings). The medicament was administered in a single daily dose (20 mg/kg of body weight) and 5-fold daily dose of 100 mg/kg of body weight. Ex tempore solutions of the medicament for administration were prepared in olive oil (refined olive oil supplemented with unrefined extra virgin olive oil available under Global Village “Clasico” trademark, lot L:183351116, expiry date 26 Apr. 2020, BAIEO, Spain). The administered volume was 0.1 ml per 10 g of a mouse body weight (0.2 ml of a ready-to-use formulation for a mouse of 20 g). The medicament administration was started 24 hours after the randomization. The duration of the administration course was 27-28 days.
This dose corresponds to a human daily dose of 20 mg/kg.
The control groups were given the olive oil (placebo).
The evaluation criteria included the clinical observation data, animals body weights, time of death (if applicable), tumor growth over time, pathomorphological examination data (verification of a neoplasm during autopsy, assessment of toxic effects by macroscopic presentation of changes in the internal organs).
The animals body weights were recorded before the first administration of the medicaments and then twice per week using a verified high-speed electronic laboratory balance Ohaus Scout Pro (USA) with a maximum load of 2000 g and a measurement step of 0.1 g.
Macroscopically detectable tumor nodes were measured in animals once per week during weighing process. Two linear dimensions including the largest one and the largest rectangular to the former were recorded for each of the nodes. The largest dimension was taken as a length (a) and the second dimension as a width (b) of the tumor nodes. A tumor volume was calculated by the expression as follows: […]
The efficacy of the therapy was assessed by recording a change in the average tumor volume, tumor growth inhibition (TGI), and the average total tumor volumes and its change over time in each of the mice.
The percent of tumor growth inhibition was calculated by the expression as follows:
TGI=(Vctrl−Vexp)/Vctrl×100(%),
where Vctrl is an average tumor volume in a control group, and Vexp is an average tumor volume in an experimental group.
The primary data from individual forms were transferred to Microsoft Excel 2007 books. The group arithmetic average (M) and standard deviation (m) were calculated for all quantitative data. The statistical analysis was performed using the statistical software GraphPad Prism 6.0. The differences between the groups were assessed using ANOVA regression analysis and the Fisher's exact test.

uterine body [3] = assay: Hormonal effect: uterine body weight in tumor-bearing mice; assay type: in vivo, mouse; conditions: Tamoxifen-1 group, 4 mg/kg; estrous phase E
[4] = as above; assay type: in vivo, mouse; conditions: Tamoxifen-1 group, 4 mg/kg
uterine body [5] = assay: as above; assay type: in vivo, mouse; conditions: Tamoxifen-1 group, 4 mg/kg
Description: To estimate the hormonal effect of the medicament, the weight of the uterine body without uterine horns was measured (Table 9).

[6] = first class: high solubility, high permeability, second class: low solubility; cited from earlier work
uterus = conditions: literature / prior art; cited from earlier work
[7] = Tamoxifen group, dose 1.4 mg/kg, Day 6
[8] = Tamoxifen group, dose 1.4 mg/kg, Day 13
[9] = Tamoxifen group, dose 1.4 mg/kg, Day 20
[10] = Tamoxifen group, dose 1.4 mg/kg, Day 27
[11] = Tamoxifen group, dose 1.4 mg/kg, Day −1
[12] = Tamoxifen group, dose 1.4 mg/kg, Day 27 vs Day −1
[13] = Tamoxifen-1 group, 4 mg/kg i.g. daily, end of study

## C[C@H]1Oc2cc(OS(N)(=O)=O)ccc2C2=C1C1=CCC[C@H](OS(N)(=O)=O)[C@@]1(C)CC2 [3,17αβ-disulfamoyloxy-7β-methyl-D-homo-6-oxa-estra-1,3,5(10), 8,14-pentaen]
[1]
  Growth of MCF-7 breast cancer cells: inhibitor of the growth

## C#C[C@]1(O)CC[C@H]2[C@@H]3CCc4cc(O)ccc4[C@H]3CC[C@@]21C [EE, 17α-ethinyl estradiol, reference compound]
Ovariectomized rats
  Uterus weight: 164 ± 11 mg/100 g bw

## CC/C(=C(\c1ccccc1)c1ccc(OCCN(C)C)cc1)c1ccccc1 [Tamoxifen, reference compound]
[2]; [7]
  Average total volume of tumors in mice (M): 0.76 cm^3
  Average volume of tumors present at the beginning of the experiment (M): 0.26 cm^3
  TGI (average total tumor volume): −12%
  TGI (average tumor volume): 13%
[2]; [8]
  Average total volume of tumors in mice (M): 0.88 cm^3
  Average volume of tumors present at the beginning of the experiment (M): 0.3 cm^3
  TGI (average total tumor volume): −32%
  TGI (average tumor volume): 46%
[2]; [9]
  Average total volume of tumors in mice (M): 1.38 cm^3
  Average volume of tumors present at the beginning of the experiment (M): 0.47 cm^3
  TGI (average total tumor volume): 9%
  TGI (average tumor volume): 29%
[2]; [10]
  Average total volume of tumors in mice (M): 1.68 cm^3
  Average volume of tumors present at the beginning of the experiment (M): 0.58* cm^3
  TGI (average total tumor volume): 18%
[2]; [11]
  Average total volume of tumors in mice (M): 0.66 cm^3
  Average volume of tumors present at the beginning of the experiment (M): 0.23 cm^3
  TGI (average total tumor volume): −57%
  TGI (average tumor volume): −28%
[2]; [12]
  % of change from baseline (average total tumor volume): 155%
  % of change to the initial value (average tumor volume): 152%
[2]; Tamoxifen-1 group, 4 mg/kg i.g. daily, 4 mg/kg
  Average volume of new tumors at the end of the observation period (M): 0.16±0.05 cm^3 and 0.16 cm^3
[2]; [13]
  Absolute number of new tumors: 21
  Frequency of tumor stabilizations: 10%
[2]; Tamoxifen-1 group, end of observation
  Average volume of new tumors, % less than that of the control group: 52%
Uterine body [3]
  Uterine body weight: 31 ± 2 mg
[4]; all mice
  Body weight: 28.2 ± 1.0 g
[4]; estrous phase D
  Body weight: 30.5 g
[4]; estrous phase E
  Body weight: 28.0 ± 1.0 g
Uterine body [5]; all mice
  Uterine body weight: 32 ± 2 mg
Uterine body [5]; estrous phase D
  Uterine body weight: 34 mg

## CC(C)(C#N)c1cc(Cn2cncn2)cc(C(C)(C)C#N)c1 [anastrazole]
[6]
  BCS class: first class

## C[C@]12CC[C@@H]3c4ccc(OS(N)(=O)=O)cc4CC[C@H]3[C@@H]1CCC2=O [estrone sulfamate]
uterus
  Uterotropic activity: strong uterotropic activity

## N#Cc1ccc(C(c2ccc(C#N)cc2)n2cncn2)cc1 [letrozole]
[6]
  BCS class: first class

Reference: patent publication US20220106282A1, “TREATMENT FOR BREAST CANCER, INCLUDING TRIPLE-NEGATIVE BREAST CANCER” (priority 2018, published 2022)
